Assay results published in paper PMC6832920, “Synthesis, Docking Studies, and In Vitro Evaluation of Some Novel Thienopyridines and Fused Thienopyridine–Quinolines as Antibacterial Agents and DNA Gyrase Inhibitors” (Molecules, 2019).
Values after ≈ are worked out from the molar mass of the structure shown.

What was measured:
[1] = tested on: Salmonella typhimurium 14028; experiment: agar disc-diffusion antibacterial assay; format: cell-based; conditions: Salmonella enterica; S. typhimurium 14028; disc loaded with 100 μg; 37 °C, 24 h; read-out: diameter of inhibition zone
Protocol: (§1) The clinical control strains of Gram-negative bacteria (Escherichia coli 8739, Salmonella typhimurium 14028, Pseudomonas aeruginosa 27853) and Gram-positive bacteria (Bacillus subtilis 6633, Bacillus cereus 33018, Staphylococcus aureus 25923), were obtained from microbial inoculums by subculturing microorganisms into nutrient broth (NB) at 37 °C for 18 h, and were adjusted to 0.125 A° at 625 nm (equivalent to a McFarland 0.5) in 2-fold NB. A 100 μL measure of NB containing each test microorganism was added to the sterile Petri dishes. Antibacterial testing was carried out on all compounds (3a,b–14) using the agar disc-diffusion method [40]. Sterile nutrients were inoculated with 100 μL cell suspension of the chosen test microorganism and poured into Petri dishes (20 cm diameter). Filter paper discs (Whatman, No.3, diameter 5 mm) were loaded with 10 μL containing 100 μg of the tested compounds, as well as the standard drug. Composite compound disks were placed on the surface of inoculated agar plates and kept at low temperatures before incubation in order to support the swelling and diffusion of the microbial growth. The plates were incubated at 37 °C in the incubator. Experiments were performed in duplicate and the diameters of inhibition zones were measured after 24 h.

[2] = tested on: Bacillus cereus 33018; experiment: MIC determination by dilution procedure; format: cell-based; conditions: B. cereus 33018, dilutions 125-1.95 μg/mL, read-out: minimum inhibitory concentration (MIC)
Protocol: (§2) A 100 μL measure of NB containing each test microorganism was added to the sterile Petri dishes. Antibacterial testing was carried out on all compounds (3a,b–14) using the agar disc-diffusion method [40]. Sterile nutrients were inoculated with 100 μL cell suspension of the chosen test microorganism and poured into Petri dishes (20 cm diameter). Filter paper discs (Whatman, No.3, diameter 5 mm) were loaded with 10 μL containing 100 μg of the tested compounds, as well as the standard drug. Composite compound disks were placed on the surface of inoculated agar plates and kept at low temperatures before incubation in order to support the swelling and diffusion of the microbial growth. The plates were incubated at 37 °C in the incubator. Experiments were performed in duplicate and the diameters of inhibition zones were measured after 24 h. A diameter of inhibition zone (DIZ) assay was performed to evaluate the antimicrobial potential of the compounds against the tested organisms compared with reference antibiotics.

[3] = tested on: Bacillus cereus 33018; experiment: agar disc-diffusion antibacterial assay; format: cell-based; conditions: B. cereus 33018, disc loaded with 100 μg, 37 °C, 24 h, read-out: diameter of inhibition zone
Protocol: as §2

[4] = tested on: Staphylococcus aureus 25923; experiment: agar disc-diffusion antibacterial assay; format: cell-based; conditions: S. aureus 25923, disc loaded with 100 μg, 37 °C, 24 h, read-out: diameter of inhibition zone
Protocol: (§3) The clinical control strains of Gram-negative bacteria (Escherichia coli 8739, Salmonella typhimurium 14028, Pseudomonas aeruginosa 27853) and Gram-positive bacteria (Bacillus subtilis 6633, Bacillus cereus 33018, Staphylococcus aureus 25923), were obtained from microbial inoculums by subculturing microorganisms into nutrient broth (NB) at 37 °C for 18 h, and were adjusted to 0.125 A° at 625 nm (equivalent to a McFarland 0.5) in 2-fold NB. A 100 μL measure of NB containing each test microorganism was added to the sterile Petri dishes. Antibacterial testing was carried out on all compounds (3a,b–14) using the agar disc-diffusion method [40]. Sterile nutrients were inoculated with 100 μL cell suspension of the chosen test microorganism and poured into Petri dishes (20 cm diameter). Filter paper discs (Whatman, No.3, diameter 5 mm) were loaded with 10 μL containing 100 μg of the tested compounds, as well as the standard drug. Composite compound disks were placed on the surface of inoculated agar plates and kept at low temperatures before incubation in order to support the swelling and diffusion of the microbial growth. The plates were incubated at 37 °C in the incubator. Experiments were performed in duplicate and the diameters of inhibition zones were measured after 24 h. A diameter of inhibition zone (DIZ) assay was performed to evaluate the antimicrobial potential of the compounds against the tested organisms compared with reference antibiotics.

[5] = tested on: methicillin-resistant Staphylococcus aureus (MRSA); experiment: inhibition zones against MRSA (disc diffusion); format: cell-based
[6] = tested on: Salmonella typhimurium 14028; experiment: MIC determination by dilution procedure; format: cell-based; conditions: Salmonella enterica; S. typhimurium 14028; dilutions 125-1.95 μg/mL; read-out: minimum inhibitory concentration (MIC)
Protocol: as §1

[7] = molecular target: T1, DNA gyrase from E. coli (Escherichia coli, UniProt P0AES6); experiment: Escherichia coli DNA gyrase supercoiling inhibition assay; format: biochemical
T1 construct: purchased TopoGEN

[8] = tested on: Escherichia coli 8739; experiment: MIC determination by dilution procedure; format: cell-based; conditions: E. coli 8739, dilutions 125-1.95 μg/mL, read-out: minimum inhibitory concentration (MIC)
[9] = tested on: Bacillus subtilis 6633; experiment: agar disc-diffusion antibacterial assay; format: cell-based; conditions: B. subtilis 6633, disc loaded with 100 μg, 37 °C, 24 h, read-out: diameter of inhibition zone
Protocol: as §2

[10] = tested on: Pseudomonas aeruginosa 27853; experiment: agar disc-diffusion antibacterial assay; format: cell-based; conditions: P. aeruginosa 27853, disc loaded with 100 μg, 37 °C, 24 h, read-out: diameter of inhibition zone
Protocol: as §3

[11] = tested on: Escherichia coli 8739; experiment: agar disc-diffusion antibacterial assay; format: cell-based; conditions: E. coli 8739, disc loaded with 100 μg, 37 °C, 24 h, read-out: diameter of inhibition zone
Protocol: as §3

[12] = tested on: Staphylococcus aureus 25923; experiment: MIC determination by dilution procedure; format: cell-based; conditions: Staphylococcus aureus, 25923, S. aureus 25923; dilutions 125-1.95 μg/mL; read-out: minimum inhibitory concentration (MIC)
Protocol: as §2

[13] = tested on: Pseudomonas aeruginosa 27853; experiment: MIC determination by dilution procedure; format: cell-based; conditions: Pseudomonas aeruginosa, 27853, P. aeruginosa 27853; dilutions 125-1.95 μg/mL; read-out: minimum inhibitory concentration (MIC)
[14] = tested on: Bacillus subtilis 6633; experiment: MIC determination by dilution procedure; format: cell-based; conditions: B. subtilis 6633, dilutions 125-1.95 μg/mL, read-out: minimum inhibitory concentration (MIC)
Protocol: as §2

Row | Structure (SMILES) | zone of inhibition at 100 µg/disc [1] [mm] | MIC [2] [µg/mL] | zone of inhibition at 100 µg/disc [3] [mm] | zone of inhibition at 100 µg/disc [4] [mm] | zone of inhibition against MRSA [5] [mm] | MIC [6] [µg/mL] | IC50 [7] [µM] | MIC [8] [µg/mL] | zone of inhibition at 100 µg/disc [9] [mm] | zone of inhibition at 100 µg/disc [10] [mm] | zone of inhibition at 100 µg/disc [11] [mm] | MIC [12] [µg/mL] | MIC [13] [µg/mL] | MIC [14] [µg/mL] | melting point [°C]
1 | COc1ccc(-c2cc(-c3ccco3)nc3sc(C(N)=O)c(N=C4CCCCC4)c23)cc1 [Compound 4a, 3-(Cyclohexylideneamino)-6-(furan-2-yl)-4-(4-methoxyphenyl)thieno[2,3-b]pyridine-2-carboxamide] | 15 | 15.6 (≈ 35.1 µM) | 16 | 18 | 13 | 15.6 (≈ 35.1 µM) | 3.69 ± 0.15 | 15.6 (≈ 35.1 µM) | 15 | 13 | 18 | 15.6 (≈ 35.1 µM) | 31.2 (≈ 70.1 µM) | 15.6 (≈ 35.1 µM) | 
2 | CNC(C)C1CCC(N)C(OC2C(N)CC(N)C(OC3OCC(C)(O)C(NC)C3O)C2O)O1 (stereo not shown) [Gentamicin, gentamicin, reference compound] |  |  |  |  | 15 |  |  |  |  |  |  |  |  |  | 
3 | CC1=NN=C(Nc2c3c(nc4c2sc2nc(-c5ccco5)cc(-c5cccs5)c24)CCCC3)C1 [Compound 14, 2-(furan-2-yl)-N-(5-methyl-4H-pyrazol-3-yl) -4-(thiophen-2-yl)-6,7,8,9-tetrahydropyrido[3′,2′:4,5]thieno[3,2-b]quinolin-10-amine] | 12 | 15.6 (≈ 32.3 µM) | 17 | 13 |  | 31.2 (≈ 64.6 µM) | 11.7 ± 0.93 | 15.6 (≈ 32.3 µM) | 16 | 10 | 15 | 31.2 (≈ 64.6 µM) | 31.2 (≈ 64.6 µM) | 15.6 (≈ 32.3 µM) | 274
4 | COc1ccc(-c2cc(-c3ccco3)nc3sc4c(N=Cc5cccs5)c5c(nc4c23)CCCC5)cc1 [Compound 12b, N-(2-(furan-2-yl)-4-(4-methoxyphenyl)-6,7,8,9-tetrahydropyrido[3′,2′:4,5]thieno[3,2-b]quinolin-10-yl)-1-(thiophen-2-yl)methanimine] | 16 | 15.6 (≈ 30 µM) | 15 | 16 | 15 | 15.6 (≈ 30 µM) | 4.6 ± 0.28 | 15.6 (≈ 30 µM) | 15 | 16 | 18 | 15.6 (≈ 30 µM) | 15.6 (≈ 30 µM) | 15.6 (≈ 30 µM) | 114
5 | COc1ccc(-c2cc(-c3ccco3)nc3sc4c(NC(=O)CN5CCN(C)CC5)c5c(nc4c23)CCCC5)cc1 [Compound 9b, N-(2-(furan-2-yl)-4-(4-methoxyphenyl)-6,7,8,9-tetrahydropyrido[3′,2′:4,5]thieno[3,2-b]quinolin-10-yl)-2-(4-methylpiperazin-1-yl)acetamide] | 19 | 15.6 (≈ 27.5 µM) | 18 | 16 | 14 | 15.6 (≈ 27.5 µM) | 5.78 ± 0.46 | 15.6 (≈ 27.5 µM) | 15 | 18 | 20 | 15.6 (≈ 27.5 µM) | 15.6 (≈ 27.5 µM) | 15.6 (≈ 27.5 µM) | 158 to 159
6 | COc1ccc(-c2cc(-c3ccco3)nc3sc4c(NC(=O)CNN)c5c(nc4c23)CCCC5)cc1 [Compound 7a, N-(2-(furan-2-yl)-4-(4-methoxyphenyl)-6,7,8,9-tetrahydropyrido[3′,2′:4,5]thieno[3,2-b]quinolin-10-yl)-2-hydrazinylacetamide] | 11 | 15.6 (≈ 31.3 µM) | 15 | 19 | 18 | 31.2 (≈ 62.6 µM) | 8.66 ± 0.61 | 15.6 (≈ 31.3 µM) | 17 | 11 | 16 | 15.6 (≈ 31.3 µM) | 31.2 (≈ 62.6 µM) | 15.6 (≈ 31.3 µM) | 278
7 | COc1ccc(-c2cc(-c3ccco3)nc3sc4c(NC(=O)CCl)c5c(nc4c23)CCCC5)cc1 [Compound 6a, 2-Chloro-N-(2-(furan-2-yl)-4-(4-methoxyphenyl)-6,7,8,9-tetrahydropyrido[3′,2′:4,5]thieno[3,2-b]quinolin-10-yl)acetamide] |  | 31.2 (≈ 62 µM) | 13 | 12 |  |  | 13.7 ± 0.65 | 31.2 (≈ 62 µM) | 10 | 13 | 13 | 31.2 (≈ 62 µM) | 31.2 (≈ 62 µM) | 31.2 (≈ 62 µM) | 342 to 343
8 | NC(=O)c1sc2nc(-c3ccco3)cc(-c3cccs3)c2c1N [Compound 3b, 3-Amino-6-(furan-2-yl)-4-(thiophen-2-yl)thieno[2,3-b]pyridine-2-carboxamide] | 18 | 15.6 (≈ 45.8 µM) | 18 | 13 |  | 15.6 (≈ 45.8 µM) | 4.5 ± 0.32 | 15.6 (≈ 45.8 µM) | 12 | 13 | 19 | 31.2 (≈ 91.5 µM) | 31.2 (≈ 91.5 µM) | 31.2 (≈ 91.5 µM) | 253
9 | O=C(CCl)Nc1c2c(nc3c1sc1nc(-c4ccco4)cc(-c4cccs4)c13)CCCC2 [Compound 6b, 2-Chloro-N-(2-(furan-2-yl)-4-(thiophen-2-yl)-6,7,8,9-tetrahydropyrido[3′,2′:4,5]thieno[3,2-b]quinolin-10-yl)acetamide] | 12 | 15.6 (≈ 32.6 µM) | 15 |  |  | 31.2 (≈ 65.1 µM) | 5.95 ± 0.34 | 15.6 (≈ 32.6 µM) | 15 | 12 | 16 |  | 31.2 (≈ 65.1 µM) | 15.6 (≈ 32.6 µM) | 338
10 | COc1ccc(-c2cc(-c3ccco3)nc3sc(C(N)=O)c(N)c23)cc1 [Compound 3a, 3-Amino-6-(furan-2-yl)-4-(4-methoxyphenyl)thieno[2,3-b]pyridine-2-carboxamide] | 15 | 31.2 (≈ 85.5 µM) | 13 | 12 |  | 15.6 (≈ 42.8 µM) | 2.26 ± 0.19 | 15.6 (≈ 42.8 µM) | 10 | 15 | 18 | 31.2 (≈ 85.5 µM) | 15.6 (≈ 42.8 µM) | 31.2 (≈ 85.5 µM) | 
11 | Nc1c2c(nc3c1sc1nc(-c4ccco4)cc(-c4cccs4)c13)CCCC2 [Compound 5b, 2-(Furan-2-yl)-4-(thiophen-2-yl)-6,7,8,9-tetrahydropyrido[3′,2′:4,5]thieno[3,2-b]quinolin-10-amine] | 17 | 15.6 (≈ 38.7 µM) | 16 | 13 |  | 15.6 (≈ 38.7 µM) | 16.7 ± 0.88 | 15.6 (≈ 38.7 µM) | 12 | 14 | 15 | 31.2 (≈ 77.4 µM) | 15.6 (≈ 38.7 µM) | 31.2 (≈ 77.4 µM) | 248
